Measurements: patent US20140242093A1, “METHODS AND COMPOSITIONS FOR MODULATING THE INNATE IMMUNE RESPONSE AND/OR MYOGENESIS IN A MAMMALIAN SUBJECT” (FRED HUTCHINSON CANCER RESEARCH CENTER, priority 2011, published 2014)

System: control human primary myoblasts
Assay: Expression microarray of primary myoblasts transduced with lentivirus carrying DUX4-fl, DUX4-s or GFP
Protocol: Primary human myoblasts were collected and cultured as previously described (Snider et al., 2010). Primary myoblasts were maintained at or below 70% confluency for proliferation. For differentiation, cells were allowed to reach 95-100% confluency in growth medium. Once confluency was reached, the cells were changed to differentiation medium (F10 media supplemented with 1% horse serum, 10 μg/mL insulin, and 10 μg/mL transferrin, penicillin/streptomycin) and maintained for 4 days. Human RD cells were grown in DMEM in 10% bovine calf serum (Hyclone) and penicillin/streptomycin. The primary myoblasts were transduced with lentivirus carrying DUX-fl, DUX4- or GFP (MOI=15).
Expression microarrays were performed on the transduced cells at 24 hours after transduction as follows. […] Samples were analyzed by Illumina Human Whole Genome microarrays. Probe intensities were corrected, normalized, and summarized by the Lumi package of Bioconductor (Du et al., 2008). Differentially expressed genes were identified by the LIMMA package of Bioconductor (Wettenhall and Smyth, 2004). Gene set enrichment analysis (GSEA) was performed using the Bioconductor GOstats package (Falcon and Gentleman, 2007).

With “DUX4-fl: full-length DUX4 protein (SEQ ID NO:110), expressed from lentiviral or pCS2 vectors or in vitro translated” the “fc of ATRIP (expression array)” value (Refseq NM_032166.2) was −1.006, the CEP78 expression fc (Refseq NM_032171.1) was 2.035 and the SON expression fc (Refseq NM_032195.1) was 2.055. The LARP1B expression fc (Refseq NM_032239.2) was 1.858, the MED10 expression fc (Refseq NM_032286.2) was 1.965 and the C1orf57 fc (Refseq NM_032324.1) was −1.117. The ELOF1 expression fc (Refseq NM_032377.3) was 1.884, the “fc of C15orf48 (expression array)” value (Refseq NM_032413.2) was −0.8681 and the PKIB expression fc (Refseq NM_032471.4) was 1.858. It also gave a KBTBD8 expression fc (Refseq NM_032505.1) of 3.076, a TMEM185A expression fc (Refseq NM_032508.1) of 2.292 and a PARD6G fc (Refseq NM_032510.3) of −1.161. For the same substance, the “fc of EBPL (expression array)” value (Refseq NM_032565.2) was −1.006, the “fc of ACCS (expression array)” value (Refseq NM_032592.3) was −1.038 and the RBBP6 expression fc (Refseq NM_032626.5) was 1.986. The SPRYD5 expression fc (Refseq NM_032681.1) was 8.045, the “fc of SPPL2A (expression array)” value (Refseq NM_032802.3) was −0.7524 and the ATOH8 expression fc (Refseq NM_032827.4, cultured human skeletal muscle) was −2.073. The CORO6 fc (Refseq NM_032854.2) was −1.12, the “fc of TIGD5 (expression array)” value (Refseq NM_032862.2) was −1.003 and the CASP6 expression fc (Refseq NM_032992.2) was 2.035. For the same substance, the TRIM5 fc (Refseq NM_033034.1) was −1.114, the EPSTI1 expression fc (Refseq NM_033255.2, cultured human skeletal muscle) was −4.12 and the TP53INP1 fc (Refseq NM_033285.2) was −1.138. For the same substance, the CASP1 fc (Refseq NM_033294.2) was −1.17, the PRIC285 expression fc (Refseq NM_033405.2, cultured human skeletal muscle) was −2.608 and the ZNF622 expression fc (Refseq NM_033414.2) was 2.406. For the same substance, the PANX2 expression fc (Refseq NM_052839.2) was 3.831, the “fc of C20orf72 (expression array)” value (Refseq NM_052865.2) was −1.04 and the “fc of GBP5 (expression array)” value (Refseq NM_052942.2) was −0.9094. For the same substance, the “fc of ALPK2 (expression array)” value (Refseq NM_052947.3) was −0.3826, the “fc of ANTXR1 (expression array)” value (Refseq NM_053034.1) was −1.013 and the AP1S1 fc (Refseq NM_057089.2) was −1.095. It also gave a CCNE1 expression fc (Refseq NM_057182.1) of 1.863, an FBXO32 fc (Refseq NM_058229.2) of −1.177 and a CCNT2 expression fc (Refseq NM_058241.1) of 1.876. For the same substance, the SLC44A1 fc (Refseq NM_080546.3) was −1.132, the “fc of C2orf28 (expression array)” value (Refseq NM_080592.2) was −1.029 and the DYNLL2 expression fc (Refseq NM_080677.1) was 2.736. For the same substance, the HOM-TES-103 fc (Refseq NM_080731.1) was −1.065, the ZNF280A expression fc (Refseq NM_080740.3) was 3.798 and the C20orf127 expression fc (Refseq NM_080757.1, cultured human skeletal muscle) was −2.098. For the same substance, the “fc of PTPRA (expression array)” value (Refseq NM_080841.2) was −1.02, the ASB5 fc (Refseq NM_080874.2) was −1.135 and the APBB3 expression fc (Refseq NM_133172.2, cultured human skeletal muscle) was −1.994. For the same substance, the “fc of DIS3L (expression array)” value (Refseq NM_133375.2) was −1.005, the C6orf117 expression fc (Refseq NM_138409.1) was 2.446 and the “fc of SDSL (expression array)” value (Refseq NM_138432.2) was −1.011. For the same substance, the TRIM43 expression fc (Refseq NM_138800.1) was 5.806, the CMBL expression fc (Refseq NM_138809.3, cultured human skeletal muscle) was −1.992 and the “fc of FGD4 (expression array)” value (Refseq NM_139241.1) was −0.5592. The ANGPTL4 fc (Refseq NM_139314.1) was −1.064, the MBD3L2 expression fc (Refseq NM_144614.2) was 7.623 and the JSRP1 fc (Refseq NM_144616.2) was −1.175. The “fc of PPM1M (expression array)” value (Refseq NM_144641.1) was −1.015, the “fc of C1orf58 (expression array)” value (Refseq NM_144695.2) was −0.4075 and the FXYD5 fc (Refseq NM_144779.1) was −1.065. It also gave a Cllorf82 expression fc (Refseq NM_145018.2) of 2.531, a CDC42EP5 fc (Refseq NM_145057.2) of −1.137 and an SPATA18 expression fc (Refseq NM_145263.2, cultured human skeletal muscle) of −1.989. The MOBKL2C fc (Refseq NM_145279.4) was −1.106, the ZNF296 expression fc (Refseq NM_145288.1) was 5.536 and the “fc of MGST1 (expression array)” value (Refseq NM_145792.1) was −1.032. The OSBPL7 fc (Refseq NM_145798.2) was −1.145, the TP53I3 expression fc (Refseq NM_147184.1, cultured human skeletal muscle) was −1.961 and the “fc of GJD3 (expression array)” value (Refseq NM_152219.3) was −1.028. The ACPL2 fc (Refseq NM_152282.3) was −1.079, the “fc of C1orf131 (expression array)” value (Refseq NM_152379.2) was −1.023 and the “fc of PPM1K (expression array)” value (Refseq NM_152542.2) was −0.146. It also gave a C12orf50 expression fc (Refseq NM_152589.1) of 4.522, a C1orf55 expression fc (Refseq NM_152608.3) of 2.049 and an MLKL expression fc (Refseq NM_152649.1, cultured human skeletal muscle) of −2.992. It also gave a ZSCAN4 expression fc (Refseq NM_152677.1) of 8.322, an SAMD9L expression fc (Refseq NM_152703.2, cultured human skeletal muscle) of −2.532 and a VWCE expression fc (Refseq NM_152718.2, cultured human skeletal muscle) of −3.317. The “fc of D2HGDH (expression array)” value (Refseq NM_152783.3) was −1.031, the FAS fc (Refseq NM_152877.1) was −1.133 and the APCDD1 expression fc (Refseq NM_153000.3, cultured human skeletal muscle) was −1.894. For the same substance, the PMP22 fc (Refseq NM_153321.1) was −1.103, the SLC2A14 expression fc (Refseq NM_153449.2) was 2.374 and the CYBASC3 expression fc (Refseq NM_153611.3, cultured human skeletal muscle) was −1.945.
